Activity calls are given as the source filed them. The calls are words filed in the database; no cut-off is given here.
Experiments:
[1] = Induction of tissue contraction in albino Sprague-Dawley rat reserpine-treated adrenergically innervated vas deferens at 3 x 10^-7 M by isotonic myograph analysis; type: functional
Vas deferens [2] = test: Intrinsic activity of (-)-norepinephrine-induced tissue contraction in albino Sprague-Dawley rat reserpine-treated adrenergically innervated vas deferens after 15 mins by isotonic myograph analysis; type: functional, tissue-based
[3] = Potentiation of (-)-norepinephrine-induced tissue contraction in albino Sprague-Dawley rat reserpine-treated adrenergically innervated vas deferens at 3 x 10^-4 M after 15 mins by isotonic myograph analysis; type: functional
Rattus norvegicus [4] = organism: Rattus norvegicus; test: Potentiation of (-)-norepinephrine-induced tissue contraction in albino Sprague-Dawley rat reserpine-treated adrenergically innervated vas deferens after 15 mins by isotonic myograph analysis; type: functional, tissue-based
Rattus norvegicus [5] = organism: Rattus norvegicus; test: Potentiation of (-)-norepinephrine-induced tissue contraction in albino Sprague-Dawley rat reserpine-treated adrenergically innervated vas deferens at 3 x 10^-5 to 3 x 10^-4 M after 15 mins by isotonic myograph analysis; type: functional, tissue-based
Vas deferens [6] = test: Intrinsic activity of (-)-norepinephrine-induced tissue contraction in albino Sprague-Dawley rat reserpine-treated adrenergically innervated vas deferens at 1 x 10^-5 to 3 x 10^-5 M after 15 mins by isotonic myograph analysis; type: functional, tissue-based
[7] = Potentiation of (-)-norepinephrine-induced tissue contraction in albino Sprague-Dawley rat reserpine-treated adrenergically innervated vas deferens at 3 x 10^-6 M after 15 mins by isotonic myograph analysis; type: functional
Vas deferens [8] = test: Intrinsic activity of (-)-norepinephrine-induced tissue contraction in albino Sprague-Dawley rat reserpine-treated adrenergically innervated vas deferens at 3 x 10^-6 M after 15 mins by isotonic myograph analysis; type: functional

**Q.** Which Activity [1] does the source give for `NCC(O)c1ccc(O)c(O)c1` (centres undefined) here?
**A.** 10%

**Q.** For `N[C@@H]1CC[C@@]1(O)c1ccccc1`, which Activity (Vas deferens [2]) is on record?
**A.** inactive

**Q.** And the Activity [3]?
**A.** 55%

**Q.** What about the Activity (Rattus norvegicus [4]) of the same compound?
**A.** Dose-dependent effect

**Q.** What does the source list for `N[C@@H]1CC[C@]1(O)c1ccccc1`?
**A.** Activity (Vas deferens [2]): inactive; Activity (Rattus norvegicus [5]): inactive

**Q.** For `CC(N)C(O)c1ccccc1` (centres undefined) [PHENYLPROPANOLAMINE], which Activity (Vas deferens [6]) is on record?
**A.** Active

**Q.** And the Activity [7]?
**A.** 66%

**Q.** And the Activity (Vas deferens [8])?
**A.** <5%

From ChEMBL document CHEMBL3272088, “Stereochemical studies of adrenergic drugs. Diastereomeric 2-amino-1-phenylcyclobutanols” (1976)
